The source of these data is patent US8710071B2, “Compounds, compositions and methods for reducing lipid levels” (CVI Pharmaceuticals Limited, priority 2008, dated 2014).

Data set [1] concerns hyperlipidemic rabbits. Nature of the data set: Lipid lowering effects and blood chemistry in hyperlipidemic rabbits. The conditions noted are these: for Body weight: after 14 days of drug treatment; for Body weight / ALP / ALT / AST / CK / CREA / GLU / HDL-C / LDH / LDL-C / TC / TG: mean, n = 6; for serum total cholesterol levels, treatment day 0: day 0 (before the drug treatment), n = 6, in mmol/L (unit assumed); for serum total cholesterol levels, treatment day 0 / serum total cholesterol levels, treatment day 4 / serum total cholesterol levels, treatment day 7 / serum total cholesterol levels, treatment day 10 / serum total cholesterol levels, treatment day 14: mean ± SD; for serum total cholesterol levels, treatment day 4: day 4, oral gavage once a day; for serum total cholesterol levels, treatment day 4 / serum total cholesterol levels, treatment day 7: 128(+)/128(−) 30 mg/kg, SMV/ATV 3 mg/kg; for serum total cholesterol levels, treatment day 7: day 7, oral gavage once a day; for serum total cholesterol levels, treatment day 10: day 10, doses increased after day 7 to 60 mg/kg (128(+)/128(−)) and 10 mg/kg (SMV/ATV), in mmol/L (unit assumed); for serum total cholesterol levels, treatment day 14: day 14, doses increased after day 7 to 60 mg/kg (128(+)/128(−)) and 10 mg/kg (SMV/ATV); for ALP / ALT / AST / CK / CREA / GLU / HDL-C / LDH / LDL-C / TC / TG: serum after 14 days of drug treatment.
Protocol: (§4) Forty-two male Japanese rabbits were fed the cholesterol enriched rabbit diet for two weeks to induce hypercholesterolemia. […] Serum samples were collected at day 0 (before the drug treatment) and day 7. […] All tested animals were sacrified at the end of a total of 14 days treatment and serum samples were analyzed for TC, LDL-C, TG, and HDL-C. In addition to lipid profiles, a number of biochemical parameters were also analyzed to aseesee the effects of drug treatments on liver function, muscle function, kidney function, and heart function.

In data set [2] the test system is acetyl coenzyme A carboxylase (ACC). Nature of the data set: ACC phosphorylation in HepG2 cells, Western blot. It is filed as cell-based, human. The conditions noted are these: 20 μM, 1, 2, and 3 days (FIG. 12). The method, then: HepG2 cells were treated with 20 μg/ml14R-(+)-THP for 0.5, 2, or 8 hours. Cells were lysed, and 50 μg protein from each sample was subjected to SDS-PAGE, followed by Western blotting using anti-phosphorylated ACC (Cell Signaling) and subsequently reprobed with antibody against β-actin.
(§1) Cells were harvested after 1, 2, and 3 days treatment and western blot analysis was conducted using antibodies directed to LDLR and PCSK9. Chicken anti-LDLR was purchased from Abeam, the mouse anti-PCSK9 was purchased from Cayman Chemicals, and anti-pACC was purchased from Cell Signaling.

The test system of a further data set is PCSK9. Nature of the data set: PCSK9 protein expression in HepG2 cells, Western blot. It is filed as cell-based, human. The conditions noted are these: 20 μM, 1, 2, and 3 days. The method, then:
as §1
(§2) To determine whether the stimulatory effects of statins on LDLR protein expression could be enhanced by some new compounds invented herein, HepG2 cells were untreated or treated with a low dose of rosuvastatin (RSV) at 0.3 and 1 uM concentration in the absence or the presence of Compound 127(+), or treated with low concentrations of Compound 127(+) alone for 2 days. Western blot analysis was conducted to examine LDLR and PCSK9 protein levels. Compound 127(+) is the single enantiomer of compound 127 with a positive optical rotation. […] Furthermore, the inducing effects of RSV on PCSK9 protein levels were anatagonized by compound 127(+).
(§3) Chicken anti-LDLR was purchased from Abeam and the mouse anti-PCSK9 was purchased from Cayman Chemicals. HepG2 cells cultured in 60-mm dishes were incubated overnight in medium containing 0.5% fetal bovine serum prior to the addition of compounds at 20 uM concentration for 1-3 days. Total cell lysate was isolated and 50 μg of protein was separated on SDS-PAGE and transferred to nitrocellulose membrane for immunoblotting with anti-LDLR, anti-PCSK9, and anti-p-ACC.

The next data set concerns LDLR. Put plainly: LDLR protein expression in HepG2 cells, Western blot. It is filed as cell-based, human. To be noted: 20 μM, 1, 2, and 3 days. The method, then:
as §1, §2, §3

In data set [3] the test system is hyperlipidemic rabbits. The conditions noted are these: rabbit, in vivo.
Protocol: as §4
The subject of a further data set is LDLR mRNA. Nature of the data set: LDLR mRNA expression in HepG2 cells, quantitative real-time RT-PCR. In kind it is cell-based, human. To be noted: indicated concentrations, 24 hours (FIG. 15A). On the procedure:
Activities of some compounds of Formulas I, II, III, and IV on LDLR mRNA expression were determined. HepG2 cells were treated with new compounds individually at a dose less than or equal to 10 μM for 24 hours. Total RNA was harvested for quantitative real-time RT-PCR analysis using the method described in Example 16B. […] In these experiments, berberine chloride was included for comparison.
The time-dependent effects of compounds of Formula I, II, III, and IV on the upregulation of LDLR mRNA and the inhibition of PCSK9 mRNA expression were examined (Horton J D, Cohen J C, Hobbs H I T. “Molecular biology of PCSK9: its role in LDL metabolism” TRENDS in Biochemical Sciences 2007; 32:71-77). HepG2 cells were treated with new compounds individually at 20 uM dose for 1 day, 2 day, and 3 days. Total RNA was isolated and 2 μg was used to generate cDNA in a reaction containing random primers and M-MLV at 37° C. for 1 hour in a volume of 25 μl. Real-time PCR was performed on the cDNA using MCEP REALPLEX 2 SYSTEM (Eppendorf) and Universal MasterMix (Applied Biosystems). Human LDLR, PCSK9, and GAPDH Pre-Developed TaqMan Assay Reagents (Applied Biosystems) were used to assess the levels of mRNA expressions in HepG2. The levels of LDLR mRNA or PCSK9 mRNA were normalized to that of GAPDH. Each RNA samples was assayed in triplicate. The abundance of LDLR mRNA or PCSK9 mRNA in untreated cells was defined as 1, and the amounts of LDLR mRNA or PCSK9 from compound-treated cells were plotted relative to that value (FIG. 10). The data shown are mean±s.d.
Total RNA was harvested for quantitative real-time RT-PCR analysis using method described in Examples 16B.
The effects of 23 compounds on the mRNA expressions of LDLR and PCSK9 were examined using quantitative real-time RT-PCR assays. HepG2 cells were treated with various compounds at 10 and 40 uM concentrations for 24 hours. Total RNA was isolated and […] was used to generate cDNA in a reaction containing random primers and M-MLV at 37° C. for 1 h in a volume of 25 μl. Real-time PCR was performed on the cDNA using MCEP REALPLEX 2 SYSTEM (Eppendorf) and Universal MasterMix (Applied Biosystems). Human LDLR, PCSK9, and GAPDH Pre-Developed TaqMan Assay Reagents (Applied Biosystems) were used to assess the levels of mRNA expressions in HepG2. The levels of LDLR and PCSK9 mRNA were normalized to that of GAPDH. Each RNA samples was assayed in duplicate. The fold activity was calculated by dividing mRNA abundance in compound treated cells with that of control.

The subject of a further data set is PCSK9 mRNA. Nature of the data set: PCSK9 mRNA expression in HepG2 cells, quantitative real-time RT-PCR. It is filed as cell-based, human. The conditions noted are these: indicated concentrations, 24 hours (FIG. 15B). The method, then:
The time-dependent effects of compounds of Formula I, II, III, and IV on the upregulation of LDLR mRNA and the inhibition of PCSK9 mRNA expression were examined (Horton J D, Cohen J C, Hobbs H I T. “Molecular biology of PCSK9: its role in LDL metabolism” TRENDS in Biochemical Sciences 2007; 32:71-77). HepG2 cells were treated with new compounds individually at 20 uM dose for 1 day, 2 day, and 3 days. Total RNA was isolated and 2 μg was used to generate cDNA in a reaction containing random primers and M-MLV at 37° C. for 1 hour in a volume of 25 μl. Real-time PCR was performed on the cDNA using MCEP REALPLEX 2 SYSTEM (Eppendorf) and Universal MasterMix (Applied Biosystems). Human LDLR, PCSK9, and GAPDH Pre-Developed TaqMan Assay Reagents (Applied Biosystems) were used to assess the levels of mRNA expressions in HepG2. The levels of LDLR mRNA or PCSK9 mRNA were normalized to that of GAPDH. Each RNA samples was assayed in triplicate. […]
Total RNA was harvested for quantitative real-time RT-PCR analysis using method described in Examples 16B. […]
The effects of 23 compounds on the mRNA expressions of LDLR and PCSK9 were examined using quantitative real-time RT-PCR assays. […] The fold activity was calculated by dividing mRNA abundance in compound treated cells with that of control.

As to `COc1ccc2c(c1)CCN1Cc3c(ccc(OC)c3OS(=O)(=O)c3cccc(F)c3)CC21` (single isomer, unassigned) [128(+)], in the data set on hyperlipidemic rabbits [1], the Body weight is 2.6 kg; the “serum total cholesterol levels, treatment day 0” value is recorded as 28.6 ± 6.7; the “serum total cholesterol levels, treatment day 4” value is 31.9 ± 7.5; the “serum total cholesterol levels, treatment day 7” value is given as 33.9 ± 7.2. For the same compound, in the data set on hyperlipidemic rabbits [1], the “serum total cholesterol levels, treatment day 10” value came to 33.8 ± 7.8; the “serum total cholesterol levels, treatment day 14” value is listed as 34.2 ± 7.4; the ALP stood at 165.2 IU/L; the ALT is 68.7 IU/L. For the same compound, in the data set on hyperlipidemic rabbits [1], the AST is 20.8 IU/L, the CK was found to be 1172.3 U/L, the CREA is 97.2 µmol/L and the GLU was found to be 7.9 mmol/L. In the data set with hyperlipidemic rabbits [1], this compound returned an HDL-C of 3.6 mmol/L, an LDH of 47.7 IU/L, an LDL-C of 29.7 mmol/L and a TC of 34.2 mmol/L. The compound further had a TG in the data set with hyperlipidemic rabbits [1] of 1.0 mmol/L. Also, in data set [2], the “phosphorylation of ACC” value is reported as “induced ACC phosphorylation”. Besides, the “expression of PCSK9 (protein)” value in the data set with PCSK9 is reported as “strongly inhibited”. Moreover, the LDLR protein levels entry in the data set on LDLR is “effectively increased”.

For `COc1ccc2c(c1)CCN1Cc3c(ccc(OC)c3OS(=O)(=O)c3cccc(F)c3)CC21` (single isomer, unassigned) [128(−)], the “TC and LDL-C reduction” value with hyperlipidemic rabbits [1] (14 days treatment, summary in words) is “strong TC and LDL-C reduction”. In addition, in the data set on hyperlipidemic rabbits [1], the Body weight turned out to be 2.7 kg; the “serum total cholesterol levels, treatment day 0” value was determined as 28.5 ± 6.3; the “serum total cholesterol levels, treatment day 4” value came to 29.9 ± 8.0; the “serum total cholesterol levels, treatment day 7” value stood at 29.0 ± 7.9. In the data set with hyperlipidemic rabbits [1], the “serum total cholesterol levels, treatment day 10” value is 27.9 ± 5.2; the “serum total cholesterol levels, treatment day 14” value came out at 29.7 ± 4.9; the ALP is on record as 155.5 IU/L; the ALT was determined as 50.2 IU/L. Further, in the data set with hyperlipidemic rabbits [1], the AST is 20.8 IU/L, the CK amounted to 997.5 U/L, the CREA amounted to 105.2 µmol/L and the GLU worked out at 7.9 mmol/L. In the data set on hyperlipidemic rabbits [1], this compound had an HDL-C of 3.5 mmol/L, an LDH of 50.3 IU/L, an LDL-C of 24.4 mmol/L and a TC of 29.7 mmol/L. The TG with hyperlipidemic rabbits [1] was 0.9 mmol/L. Also, the “phosphorylation of ACC” value in data set [2] is listed as “induced ACC phosphorylation”. Moreover, the “adverse effect / toxicities” value in the data set on hyperlipidemic rabbits [3] was “absence of any adverse effect”. Further, the “expression of PCSK9 (protein)” value in the data set with PCSK9 is listed as “strongly inhibited”. Moreover, the LDLR protein levels entry in the data set on LDLR is “effectively increased”.

In the case of `COc1cc2c(cc1OC)C1Cc3ccc(OC)c(OS(=O)(=O)c4ccccc4)c3CN1CC2` (centres unmarked) [Compound 91, 2,3,10-trimethoxy-5,6,7,8,13,13a-hexahydroisoquinolino[2,1-b]isoquinolin-9-yl benzenesulfonate], the “LDLR mRNA expression” value with LDLR mRNA is on record as “dose-dependently increases”. Besides, the “PCSK9 mRNA expression” value in the data set with PCSK9 mRNA is “inhibits”.
